Measurements taken from US11414379B2, “SPAK kinase inhibitors as neuroprotective agents” (United States Government as represented by the Department …, priority 2018, dated 2022).
pIC50: −log10 of the molar value.

What was measured:
human SPAK 452-547(end) = target: T1, human SPAK 452-547(end) (Homo sapiens, UniProt Q9UEW8); experiment: Fluorescence polarization, SPAK-WNK peptide interaction; format: binding; details: for pIC50: Lumio-Green-labelled WNK peptide 10 nM, read-out: IC50, concentration-dependent decrease in fluorescence polarization; for disruption of binding between WNK4 and the SPAK CCT domain: fluorescence polarization
T1 construct: Purified human SPAK 452-547(end); made in house; host or cells: E. coli
Protocol: Fluorescence polarization measurements were performed at 25° C. with purified SPAK proteins in 50 mM Tris/HCl, pH 7.5, 150 mM NaCl and 2 mM DTT. The concentration of SPAK proteins was determined by measuring their absorbance at 280 nm and calculated using the molar absorption coefficient determined by the ProtParam Online tool (Gasteiger et al., 2001). All peptides ([…] [EP4543] and […] [EP4544]; SEQ ID NO:2 and SEQ ID NO:3, respectively) contained an N-terminal linker required for conjugating to the Lumio Green fluorophore ([…]; SEQ ID NO:4) and were initially re-suspended in 50 mM ammonium bicarbonate, pH 8. Peptide labelling was achieved by incubating […] of each peptide in a 0.5 ml reaction mixture of 20 μM Lumio Green in 25 mM Tris/HCl, pH 7.5, 200 mM NaCl and 5 mM 2-mercaptoethanol. Reactions were left to proceed in the dark for 2 h. The peptides were dialysed for 4 h into 25 mM Tris/HCl, pH 7.5, 200 mM NaCl and 5 mM 2-mercaptoethanol using a Micro DispoDIALYZER with a 100 Da molecular-mass cut-off (Harvard Apparatus), and then for another 12 h with changed buffer. For fluorescence polarization, mixtures were set up containing the indicated concentration of protein, 10 nM Lumio-Green-labelled peptide in a final volume of 30 μl. All individual bindings were performed in duplicate with at least 12 data points per curve. Fluorescence polarization was measured using a BMG PheraStar plate reader, with an excitation wavelength of 485 nm and an emission wavelength of 538 nm, and measurements were corrected to the fluorescent probe alone. Data analysis and graphing were then performed in GraphPad Prism7; a one-site specific binding model was assumed (Y=Bmax*X/[Kd+X]) and the fitted dissociation constant computed. All experimental bindings were repeated at least twice.
Referring to FIG. 5A, analysis of SPAK-WNK interaction by fluorescence polarization is shown. Purified human SPAK 452-547(end) and human SPAK 452-547 with L491A (equivalent to L502 in mouse) were diluted appropriately and mixed at a 1:1 volume ratio with 20 nM Lumino-Green-labelled WNK peptide (RFQV or AFQV) to the concentration stated in the Figure (with the final peptide concentration consistent at 10 nM), and fluorescent polarization measurements were made. Binding curves, assuming one-site-specific binding, were then generated with Prism6 using milli-polarization (mP) units.

[1] = tested on: KCC2 pThr1007 and NKCC1 pThr203/207/212; experiment: In vivo pharmacodynamic analysis, brain; parameters: species or system mouse; details: naïve brains; 60 minutes after administration
Protocol: Male C57BL/6j wild-type mice (6 weeks old) were purchased from Charles River Laboratories Edinburgh UK. ZT-1a was dissolved in DMSO (Sigma) solution and administered by subcutaneous injection into wild type male C57BL/6 mice at doses of 0, 3, 10, 30, 50 and 100 mg/kg. 50 mg/kg Closantel (1) was injected as a comparative control. Age-matched SPAK^502A/502A knock-in mice were also used as comparative controls (Zhang et al. (2015) Human molecular genetics 24: 4545-455). Control mice were treated with an equal volume of DMSO solution. One hour after administration, mice were sacrificed by cervical dislocation, and kidney and brain tissues were rapidly dissected and snap-frozen in liquid nitrogen. The SPAK^502A/502A knock-in mouse was established and maintained under specific pathogen-free conditions at the University of Dundee (UK) as described in our recent study.
Referring to FIG. 9A and FIG. 9B, in vivo pharmacodynamic analysis of ZT-1a was performed. ZT-1a and Closantel were administered via subcutaneous injection at the indicated doses. Brain (FIG. 9A) and kidney (FIG. 9B) tissues were collected, and endogenous proteins were subjected to immunoblot probed with SPAK, NKCC1 and NCC phospho-specific antibodies.

[2] = tested on: mouse model of ischemic stroke; experiment: Infarct volume and hemispheric swelling after transient MCAO; format: in vivo
Description: Under an operating microscope, the left common carotid artery was exposed through a midline incision. […] The ECA was dissected further distally and permanently ligated. The internal carotid artery (ICA) was isolated and carefully separated from the adjacent vagus nerve. A 12 mm length of silicon-coated nylon filament (size 6-0, native diameter 0.11 mm; diameter with coating 0.21+/−0.02 mm; coating length 5-6 mm; Doccol Corporation, Sharon, Mass.) was introduced into the ECA lumen through a puncture. The silk suture around the ECA stump was tightened around the intraluminal nylon suture to prevent bleeding. The nylon suture was then gently advanced from the ECA to the ICA lumen until mild resistance was felt (˜9 mm). For reperfusion, the suture was withdrawn 50 min after MCAO to restore blood flow. Body temperature was maintained for the duration of the experiment between 36.5° C.-37° C. with a small animal heating pad (Kent Scientific).
At 24 hours reperfusion, mice were anesthetized with 5% isoflurane and then decapitated. Coronal brain tissue slices (2 mm) were stained for 20 minutes at 37° C. with 1% 2,3,5-triphenyltetrazolium chloride monohydrate (TTC; Sigma, St Louis, Mo.) in PBS solution. […] The extent of hemispheric swelling was calculated using the following equation: swelling (% contralateral side)=[(volume of ipsilateral hemisphere−volume of contralateral hemisphere)/volume of contralateral hemisphere]×100 (Bhuiyan et al. (2017) Journal of cerebral blood flow and metabolism: official journal of the International Society of Cerebral Blood Flow and Metabolism 37: 2780-2794).
Referring to FIG. 11A, an experimental design of ischemic stroke study is shown. Vehicle or ZT-1a is administered at 3 hrs and 8 hrs post-MCAO.
Referring to FIG. 11B, representative images and quantification of infarct volume and hemispheric swelling in TTC-stained coronal sections of mouse brains 24 hrs post-MCAO are shown. Vehicle (DMSO, 2 ml/kg) or ZT-1a (2.5 or 5.0 mg/kg) were administered with an initial half dose at 3 hrs and the second half dose at 8 hr reperfusion via intra-peritoneal injection (i.p.). Data are mean±SD, n=6-12 per group (male). * p<0.05.

SMILES | pIC50 (human SPAK 452-547(end)) | disruption of binding between WNK4 and the SPAK CCT domain (human SPAK 452-547(end)) | effect on KCC2 (pThr1007) or NKCC1 (pThr203/207/212) phosphorylation [1] | effect on infarct volume and hemispheric swelling ([2]; 0.1 mg/kg dose) | effect on infarct volume and hemispheric swelling ([2]; 1.0 or 2.5 mg/kg at 3 hr and at 8 hr reperfusion) | infarct volume ([2]; 5 mg/kg i.p., post-stroke from 3 hr reperfusion, 24 hrs post-MCAO, mean±SD) [mm^3] | decrease of infarct volume ([2]; 5 mg/kg i.p., post-stroke from 3 hr reperfusion, 24 hrs post-MCAO, vs vehicle) [%] | reduction of cerebral hemispheric swelling ([2]; 2.5 or 5 mg/kg, 24 hrs post-MCAO, vs vehicle) [%]
Cc1cc(C(C#N)c2ccc(Cl)cc2)c(Cl)cc1NC(=O)c1cc(I)cc(I)c1O (centres unmarked) [Closantel] | < 3.00 | did not disrupt | neither drug reduced | ineffective | dose-dependently reduced | – | – | –
Cc1cc(C(C#N)c2ccc(Cl)cc2)c(Cl)cc1NC(=O)c1cc(Cl)ccc1O (centres unmarked) [ZT-1a, 5-chloro-N-(5-chloro-4-((4-chlorophenyl)(cyano)methyl)-2-methylphenyl)-2-hydroxy-benzamide] | 3.49 | did not disrupt | neither drug reduced | – | – | 50.4±27.0 | ~35 | 36 to 50
